Test results published in ChEMBL document CHEMBL1201862, “PubChem BioAssay data set” (2004).
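Following 48 hours of exposure in 96-well plates, responses at five concentrations were used to interpolate endpoints linearly. Abbreviation: GI50, concentration required for 50% inhibition of growth.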 Calls of active or inactive are those of the source. No stated cut-off is given here; in the data, active = GI50 up to about 1.1 µM and inactive = higher.

Tests used:
Assay in all cases: DTP human tumour cell line panel, 48 h
786-0 = test system: 786-0
A549 = test system: A549
ACHN = test system: ACHN
CAKI-1 = test system: CAKI-1
CCRF-CEM = test system: CCRF-CEM
COLO 205 = test system: COLO 205
DU-145 = test system: DU-145
EKVX = test system: EKVX
HCC 2998 = test system: HCC 2998
HCT-116 = test system: HCT-116
HCT-15 = test system: HCT-15
HL-60 = test system: HL-60
HOP-62 = test system: HOP-62
HOP-92 = test system: HOP-92
HT-29 = test system: HT-29
Hs-578T = test system: Hs-578T
IGROV-1 = test system: IGROV-1
K562 = test system: K562
KM12 = test system: KM12
LOX IMVI = test system: LOX IMVI
M14 = test system: M14
MCF7 = test system: MCF7
MDA-MB-231 = test system: MDA-MB-231
MDA-MB-435 = test system: MDA-MB-435
MDA-N = test system: MDA-N
MOLT-4 = test system: MOLT-4
NCI-H226 = test system: NCI-H226
NCI-H23 = test system: NCI-H23
NCI-H460 = test system: NCI-H460
NCI/ADR-RES = test system: NCI/ADR-RES
OVCAR-4 = test system: OVCAR-4
OVCAR-5 = test system: OVCAR-5
OVCAR-8 = test system: OVCAR-8
PC-3 = test system: PC-3
RPMI-8226 = test system: RPMI-8226
RXF 393 = test system: RXF 393
SF-295 = test system: SF-295
SK-MEL-28 = test system: SK-MEL-28
SK-MEL-2 = test system: SK-MEL-2
SK-MEL-5 = test system: SK-MEL-5
SK-OV-3 = test system: SK-OV-3
SN12C = test system: SN12C
SNB-19 = test system: SNB-19
SNB-75 = test system: SNB-75
SR = test system: SR
T47D = test system: T47D
TK-10 = test system: TK-10
U-251 = test system: U-251
UACC-257 = test system: UACC-257
UACC-62 = test system: UACC-62
UO-31 = test system: UO-31
A498 = test system: A498
NCI-H522 = test system: NCI-H522
OVCAR-3 = test system: OVCAR-3
SF-268 = test system: SF-268
SF-539 = test system: SF-539
SW-620 = test system: SW-620
Malme-3M = test system: Malme-3M

For `C[C@@H](c1ccccc1)N1CO[C@@]2(C#Cc3ccc4c(c3)OCO4)CCC[C@@H]12`, the GI50 (786-0) was 17.8 µM (inactive), the GI50 (A549) was 14.8 µM (inactive) and the GI50 (ACHN) was > 100 µM (inactive). For the same compound, the GI50 (CAKI-1) was 16.3 µM (inactive), the GI50 (CCRF-CEM) was 19.8 µM (inactive) and the GI50 (COLO 205) was 15.8 µM (inactive). For the same compound, the GI50 (DU-145) was 16.1 µM (inactive), the GI50 (EKVX) was 20.3 µM (inactive) and the GI50 (HCC 2998) was 17.9 µM (inactive). The GI50 (HCT-116) was 12 µM (inactive), the GI50 (HCT-15) was 12.6 µM and the GI50 (HL-60) was 7.94 µM (inactive). For the same compound, the GI50 (HOP-62) was 15.8 µM (inactive), the GI50 (HOP-92) was 5.3 µM (inactive) and the GI50 (HT-29) was 16.6 µM (inactive). The GI50 (Hs-578T) was 15.9 µM (inactive), the GI50 (IGROV-1) was 10.7 µM (inactive) and the GI50 (K562) was 13.8 µM (inactive). For the same compound, the GI50 (KM12) was 15.7 µM (inactive), the GI50 (LOX IMVI) was 12.7 µM (inactive) and the GI50 (M14) was 14.8 µM (inactive). The GI50 (MCF7) was > 100 µM (inactive), the GI50 (MDA-MB-231) was 13.3 µM (inactive) and the GI50 (MDA-MB-435) was 13.7 µM (inactive). For the same compound, the GI50 (MDA-N) was 17.3 µM (inactive), the GI50 (MOLT-4) was 9.59 µM (inactive) and the GI50 (NCI-H226) was 20.6 µM (inactive). The GI50 (NCI-H23) was 14.7 µM (inactive), the GI50 (NCI-H460) was 13.3 µM (inactive) and the GI50 (NCI/ADR-RES) was 14.7 µM (inactive). The GI50 (OVCAR-4) was 13.8 µM (inactive), the GI50 (OVCAR-5) was 18.1 µM (inactive) and the GI50 (OVCAR-8) was 14 µM (inactive). For the same compound, the GI50 (PC-3) was 12.4 µM (inactive), the GI50 (RPMI-8226) was 11.2 µM (inactive) and the GI50 (RXF 393) was 11.6 µM (inactive). The GI50 (SF-295) was 14.9 µM (inactive), the GI50 (SK-MEL-28) was 17.5 µM (inactive) and the GI50 (SK-MEL-2) was 18.3 µM (inactive). The GI50 (SK-MEL-5) was 13.1 µM (inactive), the GI50 (SK-OV-3) was 17.4 µM (inactive) and the GI50 (SN12C) was 17.1 µM (inactive). The GI50 (SNB-19) was 16.1 µM (inactive), the GI50 (SNB-75) was 13.9 µM (inactive) and the GI50 (SR) was 8.67 µM (inactive). For the same compound, the GI50 (T47D) was 16.4 µM (inactive), the GI50 (TK-10) was 15.5 µM (inactive) and the GI50 (U-251) was 13.6 µM (inactive). For the same compound, the GI50 (UACC-257) was 17.5 µM (inactive), the GI50 (UACC-62) was > 100 µM (inactive) and the GI50 (UO-31) was 14.4 µM (inactive).
`CN1N=C(c2ccncc2)OC1c1ccc(C(F)(F)F)cc1` (stereo not given) was tested, and the GI50 (786-0) was 98.4 µM (inactive), the GI50 (A498) was > 100 µM (inactive) and the GI50 (A549) was > 100 µM (inactive). The GI50 (ACHN) was > 100 µM (inactive), the GI50 (CCRF-CEM) was > 100 µM (inactive) and the GI50 (COLO 205) was > 100 µM (inactive). The GI50 (DU-145) was > 100 µM (inactive), the GI50 (EKVX) was 44.6 µM (inactive) and the GI50 (HCC 2998) was > 100 µM (inactive). For the same compound, the GI50 (HCT-116) was > 100 µM (inactive), the GI50 (HCT-15) was > 100 µM and the GI50 (HL-60) was > 100 µM (inactive). The GI50 (HOP-62) was 82.8 µM (inactive), the GI50 (HT-29) was > 100 µM (inactive) and the GI50 (Hs-578T) was > 100 µM (inactive). For the same compound, the GI50 (IGROV-1) was > 100 µM (inactive), the GI50 (K562) was > 100 µM (inactive) and the GI50 (KM12) was > 100 µM (inactive). The GI50 (LOX IMVI) was > 100 µM (inactive), the GI50 (M14) was > 100 µM (inactive) and the GI50 (MCF7) was > 100 µM (inactive). The GI50 (MDA-MB-231) was 63.5 µM (inactive), the GI50 (MDA-MB-435) was > 100 µM (inactive) and the GI50 (MDA-N) was > 100 µM (inactive). For the same compound, the GI50 (MOLT-4) was > 100 µM (inactive), the GI50 (NCI-H226) was 39.1 µM (inactive) and the GI50 (NCI-H23) was > 100 µM (inactive). For the same compound, the GI50 (NCI-H460) was > 100 µM (inactive), the GI50 (NCI-H522) was > 100 µM (inactive) and the GI50 (NCI/ADR-RES) was > 100 µM (inactive). For the same compound, the GI50 (OVCAR-3) was > 100 µM (inactive), the GI50 (OVCAR-4) was > 100 µM (inactive) and the GI50 (OVCAR-5) was > 100 µM (inactive). For the same compound, the GI50 (OVCAR-8) was > 100 µM (inactive), the GI50 (PC-3) was > 100 µM (inactive) and the GI50 (RPMI-8226) was > 100 µM (inactive). For the same compound, the GI50 (RXF 393) was > 100 µM (inactive), the GI50 (SF-268) was > 100 µM (inactive) and the GI50 (SF-295) was > 100 µM (inactive). For the same compound, the GI50 (SF-539) was > 100 µM (inactive), the GI50 (SK-MEL-28) was > 100 µM (inactive) and the GI50 (SK-MEL-2) was > 100 µM (inactive). For the same compound, the GI50 (SK-MEL-5) was > 100 µM (inactive), the GI50 (SK-OV-3) was > 100 µM (inactive) and the GI50 (SN12C) was > 100 µM (inactive). For the same compound, the GI50 (SNB-19) was > 100 µM (inactive), the GI50 (SNB-75) was 0.491 µM (active) and the GI50 (SW-620) was > 100 µM (inactive). The GI50 (T47D) was 0.495 µM (active), the GI50 (TK-10) was > 100 µM (inactive) and the GI50 (U-251) was 91 µM (inactive). For the same compound, the GI50 (UACC-257) was > 100 µM (inactive), the GI50 (UACC-62) was > 100 µM (inactive) and the GI50 (UO-31) was > 100 µM (inactive).
`CN(CCCNCc1ccccn1)Cc1ccccc1O` was tested, and the GI50 (786-0) was 52.7 µM (inactive), the GI50 (A498) was > 100 µM (inactive) and the GI50 (A549) was 37.1 µM (inactive). The GI50 (ACHN) was 13.9 µM (inactive), the GI50 (CAKI-1) was 42.8 µM (inactive) and the GI50 (CCRF-CEM) was 50.8 µM (inactive). For the same compound, the GI50 (COLO 205) was 29 µM (inactive), the GI50 (DU-145) was 40.1 µM (inactive) and the GI50 (EKVX) was 33.4 µM (inactive). The GI50 (HCC 2998) was 25.1 µM (inactive), the GI50 (HCT-116) was 60.4 µM (inactive) and the GI50 (HCT-15) was 6.4 µM. For the same compound, the GI50 (HL-60) was 2.74 µM (inactive), the GI50 (HOP-62) was 12.4 µM (inactive) and the GI50 (HOP-92) was 42.9 µM (inactive). The GI50 (HT-29) was 22 µM (inactive), the GI50 (Hs-578T) was > 100 µM (inactive) and the GI50 (IGROV-1) was 20.2 µM (inactive). The GI50 (K562) was 39.8 µM (inactive), the GI50 (KM12) was 28.5 µM (inactive) and the GI50 (LOX IMVI) was 23.1 µM (inactive). The GI50 (MCF7) was 43 µM (inactive), the GI50 (MDA-MB-231) was > 100 µM (inactive) and the GI50 (MDA-MB-435) was 44.4 µM (inactive). The GI50 (MDA-N) was 58.2 µM (inactive), the GI50 (MOLT-4) was 13.7 µM (inactive) and the GI50 (Malme-3M) was 27.8 µM (inactive). The GI50 (NCI-H226) was 15.4 µM (inactive), the GI50 (NCI-H23) was 14.4 µM (inactive) and the GI50 (NCI-H460) was 7.19 µM (inactive). For the same compound, the GI50 (NCI-H522) was 56.2 µM (inactive), the GI50 (NCI/ADR-RES) was 16.3 µM (inactive) and the GI50 (OVCAR-3) was 24.9 µM (inactive). For the same compound, the GI50 (OVCAR-4) was 31.8 µM (inactive), the GI50 (OVCAR-5) was 32 µM (inactive) and the GI50 (OVCAR-8) was 26.8 µM (inactive). The GI50 (PC-3) was 65.3 µM (inactive), the GI50 (RPMI-8226) was 36.3 µM (inactive) and the GI50 (RXF 393) was 16.7 µM (inactive). For the same compound, the GI50 (SF-268) was 57.9 µM (inactive), the GI50 (SF-295) was 20.4 µM (inactive) and the GI50 (SK-MEL-28) was > 100 µM (inactive). The GI50 (SK-MEL-2) was 35.2 µM (inactive), the GI50 (SK-MEL-5) was 21 µM (inactive) and the GI50 (SK-OV-3) was 45.2 µM (inactive). The GI50 (SN12C) was 71.1 µM (inactive), the GI50 (SNB-19) was 21.6 µM (inactive) and the GI50 (SNB-75) was > 100 µM (inactive). The GI50 (SW-620) was > 100 µM (inactive), the GI50 (T47D) was 34 µM (inactive) and the GI50 (TK-10) was 7.21 µM (inactive). The GI50 (U-251) was 96.8 µM (inactive), the GI50 (UACC-257) was 24.3 µM (inactive) and the GI50 (UACC-62) was 18.7 µM (inactive). The GI50 (UO-31) was 3.73 µM (inactive).
